In USRE49351E1, “Cytoprotective agent” (Biogen MA Inc., priority 2009, dated 2023):

Legend:
[1] = test system: Mongolian gerbil cerebral infarction model; experiment: Mongolian gerbil cerebral infarction model (acetic acid-induced thrombus): infarction area percentage and neurological symptom; assay type: in vivo; conditions: for Infarction area: evaluated 24 h; for Infarction area / Neurological scores: mean ± SE, n=6; for Neurological scores: score 0-4 at 24 h; for improvement rate of the infarction area percentage: 10 mg/kg, administration initiated 1 hour after the initiation of ischemia
Excerpt: Anesthesia was induced to a male Mongolian gerbil (body weight 55 to 65 g) by inhalation of 5% isoflurane (trade name Escain, Mylan Inc.), and maintained with 1 to 1.5% isoflurane. The Mongolian gerbil was fixed in a dorsal position, and the neck was dehaired and then disinfected with 70% ethanol. After median incision of the neck, the right common carotid artery was detached, clamped to block the blood flow temporarily, and coated with 100% acetic acid by 30 reciprocating motions so as to produce a thrombus. The blood vessel was reopened after 10 min of the blockage of the blood flow to transfer the thrombus by the blood stream into the brain to make it ischemic and generate cerebral infarction. The operating field was closed with an instant adhesive (trade name Aron Alpha (Krazy Glue), Toagosei Co., Ltd.) and disinfected with 70% ethanol.
Twenty four hours after the initiation of the operation neurological symptoms were observed as an indicator for cerebral infarction. Many types of neurological symptoms specific to cerebral infarction, such as extension of a hindlimb or circling to one direction, have been reported. Applying a modified evaluation method of the method proposed by Longa, et al. (Stroke 1989; 20:84-91) postoperative neurological symptoms were evaluated as per: no deficit, 0; extension of limb, 1; circling to one direction, 2; incline posture, 3; diminished motion, 4.
With respect to statistical analysis, for multiple comparisons was conducted firstly one-way analysis of variance (ANOVA) and then a Bonferroni test was conducted, if significant difference is detected. Significant difference was positively recognized with significance level 5% (P<0.05). All the results are expressed in mean±standard error.
After the evaluation of neurological symptoms according to the above method, the animal was decapitated under anesthesia with isoflurane. The cranial bone was exfoliated of skin and opened, and, after scission of optic nerve, the brain was extirpated and dipped in a physiological saline solution to remove attached body hairs, etc. The extirpated brain was placed in a brain matrix (RBM-1000C, ASI Instruments) to carry out coronal slicing from the frontal pole at thickness of 2 mm. The slices were dipped in 2% 2,3,5-triphenyl-2H-tetrazolium chloride (TTC), and incubated for staining at 37° C. for 30 min in a CO2 incubator. The colorless TTC is reduced by hydrogen liberated by the action of dehydrogenase contained in a normal cell converting to dark red colored water-insoluble 1,3,5-triphenylformazan (TPF), so that the normal cell is stained. Unstained area (white area) was defined as an infarction area. Meanwhile, the corpus callosum, which is commissural fibers connecting the right and left cerebral hemispheres, is not stained and is white, and therefore image processing for the analyses as described below was conducted excluding the corpus callosum.
After staining images of the brain slices were taken by a digital camera under a stereoscopic microscope. For analysis of the infarction area percentage, an image analysis software Image J (Version 1.4) was used. Full, excluding the corpus callosum, images of the taken 2nd, 3rd, and 4th brain slice images were converted to grayscale. From the grayscale images a histogram for the whole brain as the object scope was obtained showing in the ordinate the frequency of occurrence (frequency) at certain brightness, and showing in the abscissa the brightness (0 to 255). The sum from 0 to 255 was defined as the area size of the whole brain, and the sum from 160 to 219 was defined as the area size of the infarction area. Then the infarction area percentage was determined according to the following formula using the total area size of the infarction areas and the total area size of the whole brain, of the 3 brain slice images. Statistical analysis was conducted as above. […]

[2] = test system: cerebral blood flow; experiment: Cerebral blood flow by laser-Doppler in mouse cerebral infarction model; assay type: in vivo; conditions: mean ± SE, n=3
Experimental: The improvement effectiveness of SMTP-7 and alteplase on the cerebral blood flow was compared using the mouse cerebral infarction model.
SMTP-7 and alteplase were prepared as in Example 2. SMTP-7 and alteplase were administered in an amount of 10 mg/kg into the femoral vein 1 hour after the initiation of ischemia in a mouse cerebral infarction model, wherein 10% was administered by a bolus administration, and the rest by continuous administration over 30 min. Three mice were used for each condition.
The cerebral blood flow was measured at 6 time points, namely before the initiation of ischemia, immediately after the initiation of ischemia, and after the completion of the drug administration 0 hour (immediately after the completion), 1 hour, 3 hours, and 24 hours.
The cerebral blood flow measurement was conducted by cutting the head skin of a mouse to expose the cranial bone, and measuring the blood flow of the whole brain surfaces by a laser-Doppler apparatus (moorFLPI, Moor Instruments Ltd, UK). The analysis was conducted using moorFLPI (Version 2.1) by rating percentage (%) relative to the value before the initiation of ischemia of each group.

[3] = 0.01 mg/kg i.v., administration initiated 1 hr after ischemia
[4] = 0.1 mg/kg i.v., administration initiated 1 hr after ischemia
[5] = 10 mg/kg i.v., administration initiated 1 hr after ischemia
[6] = 10 mg/kg i.v., administration initiated 3 hr after ischemia
[7] = 10 mg/kg i.v., administration initiated 6 hr after ischemia
[8] = 10 mg/kg 1 hour after ischemia, 0 hr after completion of administration
[9] = 10 mg/kg 1 hour after ischemia, 1 hr after completion of administration
[10] = 10 mg/kg 1 hour after ischemia, 3 hr after completion of administration
[11] = 10 mg/kg 1 hour after ischemia, 24 hr after completion of administration
[12] = immediately after initiation of ischemia (before drug administration), group later given 10 mg/kg
[13] = 1 mg/kg i.v., administration initiated 1 hr after ischemia

Compound	Infarction area [1, 3] [%]	Neurological scores [1, 3]	Infarction area [1, 4] [%]	Neurological scores [1, 4]	Infarction area [1, 5] [%]	Neurological scores [1, 5]	Infarction area [1, 6] [%]	Neurological scores [1, 6]	Infarction area [1, 7] [%]	Neurological scores [1, 7]	improvement rate of the infarction area percentage [1] [%]	cerebral blood flow relative to the value before the initiation of ischemia [2, 8] [%]	cerebral blood flow relative to the value before the initiation of ischemia [2, 9] [%]	cerebral blood flow relative to the value before the initiation of ischemia [2, 10] [%]	cerebral blood flow relative to the value before the initiation of ischemia [2, 11] [%]	cerebral blood flow relative to the value before the initiation of ischemia [2, 12] [%]	Infarction area [1, 13] [%]	Neurological scores [1, 13]
alteplase [reference compound]	11.2 ± 2.74	2.67 ± 0.56	9.67 ± 2.35	2.00 ± 0.77	5.43 ± 1.33	0.17 ± 0.17	11.0 ± 3.61	1.33 ± 0.67	13.8 ± 2.40	3.17 ± 0.48	78.9	56.45 ± 14.70	73.49 ± 20.33	66.83 ± 11.10	71.63 ± 6.06	27.30 ± 2.35	–	–
CC(C)=CCC/C(C)=C/CC[C@@]1(C)Oc2c(c(O)cc3c2CN(CCC[C@@H](C(=O)O)N2Cc4c(cc(O)c5c4O[C@](C)(CC/C=C(\C)CCC=C(C)C)[C@@H](O)C5)C2=O)C3=O)C[C@@H]1O [SMTP-7]	–	–	–	–	7.01 ± 0.56	1.50 ± 0.67	5.90 ± 0.36	1.67 ± 0.61	7.93 ± 1.64	2.00 ± 0.45	65.7	43.74 ± 12.67	44.48 ± 12.59	48.90 ± 15.89	76.01 ± 9.71	34.17 ± 5.22	11.4 ± 2.69	2.67 ± 0.33
